What was measured:
Format in all cases: binding
HRH2 = molecular target: T1, HRH2 (Homo sapiens, UniProt P25021); assay: NanoBRET screen HiBiT-HRH2 in HEK293
T1 construct: purchased Promega (in-house HiBiT-GPCR construct library, NanoBRET)
Procedure: (§1) Each tracer candidate was screened across the entire library of HiBiT-GPCR constructs using NanoBRET as the detection modality. As depicted in Figure 4A, the specificity of interactions was evaluated through decrease in BRET due to competitive displacement of a bound tracer by excess parental compound. Each tracer was analyzed for binding to each HiBiT-GPCR fusion in the absence and in the presence of competing parental compound. Briefly, HEK293 cells were transfected with HiBiT-GPCR constructs diluted into promoterless DNA to reduce expression and maximize translocation to the cell surface. Each tracer candidate was then screened at concentrations of 1 μM and 0.1 μM across cells expressing these fusions. Cells were treated for 1.5 h with tracer either alone or in the presence of 20 μM competing parental compound (i.e., control). BRET was measured upon addition of purified LgBiT and subsequent complementation with HiBiT genetically fused to a GPCR. The specificity of interactions was assessed through a decrease in BRET signal due to competitive displacement of the bound tracer. To further gauge the robustness of these interactions, the fold response over the control (i.e., BRETtracer/BRETcontrol) was calculated. We chose a 1.5-fold response, which translates to ≥7-fold signal over noise as the minimal threshold required to score an interaction as positive. […]. Below we highlight the screening results obtained for our exemplary fluorescent tracers based on Clozapine, Amitriptyline and AZD1283.
(§2) HiBiT-GPCR DNA constructs were diluted in 10 mM Tris pH 8 to a final concentration of 0.01 μg/μL, arrayed in 96-well plates and stored at −20 °C. For transfection, HEK293 cells were suspended in Opti-MEM (without phenol red) supplemented with 2% fetal bovine serum (Seradigm) and 100 units/mL penicillin–streptomycin (Gibco) at a final concentration of 220,000 cells/mL and dispensed into white 96-well plates at 90 μL/well. Subsequent transfections and screens were carried using an Agilent Bravo Automated Liquid Handling Platform. First, the 96-well HiBiT DNA arrays were diluted 25-fold in Opti-MEM (without serum or phenol red) to a final concentration of 0.0004 μg/μL and 20 μL of the diluted DNAs were transferred into new 96-well plates. Next, promoterless carrier DNA (1 μg/μL) was diluted 25-fold (0.04 μg/μL) and then dispensed into the diluted arrays at 20 μL/well. Following brief mixing, Viafect transfection reagent (Promega) diluted 16-fold into Opti-MEM was dispensed into the plates at 40 μL/well. After mixing by pipetting, plates were incubated for 10 min on the pipetting station deck. The DNA-transfection reagent complexes were then added to plates containing cells. To facilitate the screen, 10 μL of DNA-transfection reagent complexes were added in duplicates to the top 4 and bottom 4 rows, resulting in two identical 48-well arrays per plate. Plates with transfected cells were incubated for 18–20 h at 37 °C/5% CO2. A screen of each tracer across the entire library using two different concentrations requires duplicate plates of transfected cells. Depending on the number of tracers being screened, transfections can be scaled up using the same ratios. The next day, for each tracer, four 20× screening solutions in tracer dilution buffer (Promega) were prepared: two duplicates at final concentration of 20 μM and two duplicates at a final concentration of 2 μM. A competing unmodified compound was added to one of each duplicate at a final concentration of 400 μM. The four resulting solutions were diluted 4-fold in Opti-MEM without serum or phenol red to generate 5× solutions (5 µM and 0.5 µM tracer +/− 100 μM competing compound). To screen the library, a BioTek MultiFlo FX liquid dispenser was used to dispense 22.5 µL of tracer solution to the top 4 rows and 22.5 µL tracer + competing compound solution to the 4 bottom rows. Plates were briefly mixed on an orbital shaker and incubated for 1.5 h at room temperature. […]

OXER1 = molecular target: T2, OXER1 (Homo sapiens, UniProt Q8TDS5); assay: NanoBRET screen HiBiT-OXER1 in HEK293
T2 construct: purchased Promega (in-house HiBiT-GPCR construct library, NanoBRET)
T2 sequence (Q8TDS5 whole entry): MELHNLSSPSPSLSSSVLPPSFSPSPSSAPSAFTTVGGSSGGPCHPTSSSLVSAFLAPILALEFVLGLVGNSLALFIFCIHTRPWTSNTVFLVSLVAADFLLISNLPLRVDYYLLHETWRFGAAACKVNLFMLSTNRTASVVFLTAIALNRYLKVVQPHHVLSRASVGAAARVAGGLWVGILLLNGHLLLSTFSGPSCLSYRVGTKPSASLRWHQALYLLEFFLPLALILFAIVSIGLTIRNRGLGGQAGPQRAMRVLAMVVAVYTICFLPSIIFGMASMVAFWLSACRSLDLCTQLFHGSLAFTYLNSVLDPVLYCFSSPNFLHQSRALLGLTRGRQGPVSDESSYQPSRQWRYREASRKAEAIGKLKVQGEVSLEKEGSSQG
Procedure: as §1, §2

GHSR = molecular target: T3, GHSR (Homo sapiens, UniProt Q92847); assay: NanoBRET screen HiBiT-GHSR in HEK293
T3 construct: purchased Promega (in-house HiBiT-GPCR construct library, NanoBRET)
T3 sequence (Q92847 whole entry): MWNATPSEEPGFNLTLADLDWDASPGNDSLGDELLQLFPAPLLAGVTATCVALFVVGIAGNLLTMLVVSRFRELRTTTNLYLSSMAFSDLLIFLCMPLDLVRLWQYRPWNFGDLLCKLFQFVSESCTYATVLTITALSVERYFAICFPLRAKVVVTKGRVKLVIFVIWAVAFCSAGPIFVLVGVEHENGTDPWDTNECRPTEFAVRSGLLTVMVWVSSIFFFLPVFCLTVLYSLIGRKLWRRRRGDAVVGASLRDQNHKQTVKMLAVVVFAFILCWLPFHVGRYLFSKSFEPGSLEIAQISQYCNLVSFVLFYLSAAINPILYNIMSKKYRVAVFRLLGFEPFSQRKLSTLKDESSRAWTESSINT
Procedure: as §1, §2

CCKAR = molecular target: T4, CCKAR (Homo sapiens, UniProt P32238); assay: NanoBRET screen HiBiT-CCKAR in HEK293
T4 construct: purchased Promega (in-house HiBiT-GPCR construct library, NanoBRET)
T4 sequence (P32238 1-428): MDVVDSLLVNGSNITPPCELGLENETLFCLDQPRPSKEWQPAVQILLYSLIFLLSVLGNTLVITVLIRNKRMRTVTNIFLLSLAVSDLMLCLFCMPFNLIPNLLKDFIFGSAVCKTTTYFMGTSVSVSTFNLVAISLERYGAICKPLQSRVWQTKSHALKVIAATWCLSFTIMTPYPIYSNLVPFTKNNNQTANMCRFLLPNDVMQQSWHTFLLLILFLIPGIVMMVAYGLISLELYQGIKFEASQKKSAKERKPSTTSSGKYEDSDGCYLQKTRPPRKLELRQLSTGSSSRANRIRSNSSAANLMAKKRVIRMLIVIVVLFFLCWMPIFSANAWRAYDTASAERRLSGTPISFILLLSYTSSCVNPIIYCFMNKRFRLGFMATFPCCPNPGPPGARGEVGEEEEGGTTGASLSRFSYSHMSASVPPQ
Procedure: as §1, §2

C5AR1 = molecular target: T5, C5AR1 (Homo sapiens, UniProt P21730); assay: NanoBRET screen HiBiT-C5AR1 in HEK293
T5 construct: purchased Promega (in-house HiBiT-GPCR construct library, NanoBRET)
T5 sequence (P21730 1-350): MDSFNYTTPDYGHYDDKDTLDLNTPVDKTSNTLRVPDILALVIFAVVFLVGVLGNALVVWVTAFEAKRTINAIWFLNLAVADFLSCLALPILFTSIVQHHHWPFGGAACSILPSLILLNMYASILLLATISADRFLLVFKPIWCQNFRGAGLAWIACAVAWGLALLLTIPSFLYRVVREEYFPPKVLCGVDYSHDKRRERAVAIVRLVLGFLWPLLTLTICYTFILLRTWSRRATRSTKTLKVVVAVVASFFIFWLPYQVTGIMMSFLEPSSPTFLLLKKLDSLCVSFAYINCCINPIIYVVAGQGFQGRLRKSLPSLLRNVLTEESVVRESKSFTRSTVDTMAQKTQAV
Procedure: as §1, §2

T1 sequence (P25021 whole entry): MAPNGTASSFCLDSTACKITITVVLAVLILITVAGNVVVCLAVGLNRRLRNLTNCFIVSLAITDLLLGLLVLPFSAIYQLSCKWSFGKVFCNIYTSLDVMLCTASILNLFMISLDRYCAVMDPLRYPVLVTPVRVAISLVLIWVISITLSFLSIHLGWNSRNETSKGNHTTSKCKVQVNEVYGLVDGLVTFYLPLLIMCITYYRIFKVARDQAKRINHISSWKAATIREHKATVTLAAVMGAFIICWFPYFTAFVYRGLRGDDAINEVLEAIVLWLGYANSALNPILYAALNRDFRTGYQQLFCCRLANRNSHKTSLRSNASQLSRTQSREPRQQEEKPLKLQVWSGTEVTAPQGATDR

Row | Structure (SMILES) | NanoBRET Fold Response (HRH2; 0.1μM tracer) | NanoBRET Fold Response (HRH2; 1μM tracer) | NanoBRET Fold Response (OXER1; 0.1μM tracer) | NanoBRET Fold Response (OXER1; 1μM tracer) | NanoBRET Fold Response (GHSR; 0.1μM tracer) | NanoBRET Fold Response (GHSR; 1μM tracer) | NanoBRET Fold Response (CCKAR; 0.1μM tracer) | NanoBRET Fold Response (CCKAR; 1μM tracer) | NanoBRET Fold Response (C5AR1; 0.1μM tracer) | NanoBRET Fold Response (C5AR1; 1μM tracer) | NanoBRET Fold Response (HRH2; HRH2, 0.1μM tracer) | NanoBRET Fold Response (HRH2; HRH2, 1μM tracer) | NanoBRET Fold Response (OXER1; OXER1, 0.1μM tracer) | NanoBRET Fold Response (OXER1; OXER1, 1μM tracer) | NanoBRET Fold Response (GHSR; GHSR, 0.1μM tracer) | NanoBRET Fold Response (GHSR; GHSR, 1μM tracer) | NanoBRET Fold Response (CCKAR; CCKAR, 0.1μM tracer) | NanoBRET Fold Response (CCKAR; CCKAR, 1μM tracer) | NanoBRET Fold Response (C5AR1; C5AR1, 0.1μM tracer) | NanoBRET Fold Response (C5AR1; C5AR1, 1μM tracer)
1 | COc1ccc2c(n1)c(CCNC(C)=O)cn2CCNC(=O)CCc1ccc2n1[B-](F)(F)[N+]1=C(c3ccc[nH]3)C=CC1=C2 [Azamelatonin-1-NB590] | 0.99 | 0.99 | 1.39 | 1.06 | 0.93 | 1.03 | 1.21 | 0.96 | 0.90 | 0.94 | – | – | – | – | – | – | – | – | – | –
2 | COc1ccc2[nH]c(-c3ccc(CNC(=O)CCOCCOCCOCCOCCNC(=O)CCc4ccc5n4[B-](F)(F)[N+]4=C(c6ccc[nH]6)C=CC4=C5)cc3)c(CCNC(C)=O)c2n1 [AzomelatoninICO9-2-NB590] | 1.11 | 1.07 | 1.11 | 0.83 | 0.89 | 0.90 | 1.06 | 1.04 | 0.99 | 0.98 | – | – | – | – | – | – | – | – | – | –
3 | O=C(CCOCCOCCOCCOCCNC(=O)CCc1ccc2n1[B-](F)(F)[N+]1=C(c3ccc[nH]3)C=CC1=C2)NCCCN1CCN(C2=Nc3cc(Cl)ccc3Nc3ccccc32)CC1 [Clozapine-a-2-NB590] | – | – | – | – | – | – | – | – | – | – | 0.95 | 0.89 | 0.95 | 1.00 | 0.95 | 1.06 | 1.01 | 0.85 | 1.04 | 1.11
4 | CN1CCN(C2=Nc3cc(Cl)ccc3Nc3ccc(CNC(=O)CCOCCOCCOCCOCCNC(=O)CCc4ccc5n4[B-](F)(F)[N+]4=C(c6ccc[nH]6)C=CC4=C5)cc32)CC1 [Clozapine-b-2-NB590] | – | – | – | – | – | – | – | – | – | – | 1.01 | 0.97 | 0.97 | 0.95 | 1.01 | 1.03 | 1.02 | 0.88 | 0.98 | 1.02
5 | CN1CCN(C2=Nc3cc(Cl)ccc3N(CC(=O)NCCOCCOCCOCCOCCNC(=O)CCc3ccc4n3[B-](F)(F)[N+]3=C(c5ccc[nH]5)C=CC3=C4)c3ccccc32)CC1 [Clozapine-c-2-NB590] | – | – | – | – | – | – | – | – | – | – | 0.92 | 0.95 | 1.00 | 0.94 | 1.00 | 1.04 | 1.01 | 0.74 | 1.00 | 1.05
